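Assay format: 96-well plates, 48-hour exposure. GI50 marks 50% less growth.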 Activity calls are given as the source filed them. No stated cut-off is given here; in the data, active = GI50 up to about 1.1 µM and inactive = higher.
Legend:
Test in all cases: NCI-60 cell line screen, 48 h
786-0 = test system: 786-0
BT-549 = test system: BT-549
HCT-15 = test system: HCT-15
LOX IMVI = test system: LOX IMVI
MDA-MB-231 = test system: MDA-MB-231
MDA-MB-435 = test system: MDA-MB-435
Malme-3M = test system: Malme-3M
NCI-H226 = test system: NCI-H226
NCI-H23 = test system: NCI-H23
OVCAR-3 = test system: OVCAR-3
PC-3 = test system: PC-3
RPMI-8226 = test system: RPMI-8226
RXF 393 = test system: RXF 393
SF-268 = test system: SF-268
SK-MEL-5 = test system: SK-MEL-5
TK-10 = test system: TK-10
U-251 = test system: U-251
UACC-62 = test system: UACC-62
CCRF-CEM = test system: CCRF-CEM
SK-OV-3 = test system: SK-OV-3

SMILES | GI50 (786-0) | GI50 (BT-549) | GI50 (HCT-15) [µM] | GI50 (LOX IMVI) | GI50 (MDA-MB-231) | GI50 (MDA-MB-435) | GI50 (Malme-3M) | GI50 (NCI-H226) | GI50 (NCI-H23) | GI50 (OVCAR-3) | GI50 (PC-3) | GI50 (RPMI-8226) | GI50 (RXF 393) | GI50 (SF-268) | GI50 (SK-MEL-5) | GI50 (TK-10) | GI50 (U-251) | GI50 (UACC-62) | GI50 (CCRF-CEM) | GI50 (SK-OV-3)
O=C(O)C(Cc1ccccc1-c1ccccc1)C(=O)O | > 100 µM (inactive) | > 100 µM (inactive) | > 100 | > 100 µM (inactive) | > 100 µM (inactive) | > 100 µM (inactive) | > 100 µM (inactive) | > 100 µM (inactive) | > 100 µM (inactive) | 97.1 µM (inactive) | > 100 µM (inactive) | > 100 µM (inactive) | > 100 µM (inactive) | > 100 µM (inactive) | > 100 µM (inactive) | > 100 µM (inactive) | > 100 µM (inactive) | > 100 µM (inactive) | – | –
COc1ccc(OC)c2nc3c(C(=O)NCCN(C)C)cccc3nc12 | 3.05 µM (inactive) | 10.8 µM (inactive) | 4.74 | 1.78 µM (inactive) | 2.94 µM (inactive) | 5.11 µM (inactive) | 8.65 µM (inactive) | 4.66 µM (inactive) | 3.7 µM (inactive) | 4.93 µM (inactive) | 4.04 µM (inactive) | 2.84 µM (inactive) | 5.85 µM (inactive) | 3.94 µM (inactive) | 3.67 µM (inactive) | 4.63 µM (inactive) | 4.21 µM (inactive) | 7.71 µM (inactive) | 2.29 µM (inactive) | –
C(#C[C@@]12CCC[C@@H]1N(Cc1ccccc1)CO2)c1ccc2c(c1)OCO2 | > 100 µM (inactive) | > 100 µM (inactive) | > 100 | – | > 100 µM (inactive) | > 100 µM (inactive) | > 100 µM (inactive) | > 100 µM (inactive) | > 100 µM (inactive) | > 100 µM (inactive) | > 100 µM (inactive) | > 100 µM (inactive) | > 100 µM (inactive) | > 100 µM (inactive) | – | – | > 100 µM (inactive) | > 100 µM (inactive) | > 100 µM (inactive) | > 100 µM (inactive)
C=C(C)COC(=O)COCC(=O)OCC(=C)C | > 100 µM (inactive) | > 100 µM (inactive) | > 100 | – | > 100 µM (inactive) | > 100 µM (inactive) | > 100 µM (inactive) | > 100 µM (inactive) | > 100 µM (inactive) | > 100 µM (inactive) | 95.3 µM (inactive) | > 100 µM (inactive) | > 100 µM (inactive) | > 100 µM (inactive) | > 100 µM (inactive) | > 100 µM (inactive) | > 100 µM (inactive) | > 100 µM (inactive) | > 100 µM (inactive) | > 100 µM (inactive)
CCN(CC)c1ccc2cc(-c3csc(-c4ccc(N(C)C)cc4)n3)c(=O)oc2c1 | > 100 µM (inactive) | > 100 µM (inactive) | > 100 | > 100 µM (inactive) | > 100 µM (inactive) | > 100 µM (inactive) | > 100 µM (inactive) | > 100 µM (inactive) | – | – | > 100 µM (inactive) | > 100 µM (inactive) | > 100 µM (inactive) | > 100 µM (inactive) | > 100 µM (inactive) | > 100 µM (inactive) | > 100 µM (inactive) | > 100 µM (inactive) | > 100 µM (inactive) | > 100 µM (inactive)
COc1ccc(/C(=N\Nc2ccccn2)c2ccccn2)cc1 | < 0.0162 µM (active) | 0.818 µM (active) | 0.0103 | – | < 0.0193 µM (active) | 0.156 µM (active) | < 0.01 µM (active) | < 0.01 µM (active) | 0.0272 µM (active) | < 0.01 µM (active) | 0.0306 µM (active) | < 0.0268 µM (active) | 2.59 µM (inactive) | 0.0311 µM (active) | 0.0303 µM (active) | – | < 0.0178 µM (active) | 0.104 µM (active) | < 0.01 µM (active) | 0.107 µM (active)
CCN(CC)CC(=O)Nc1c(C(N)=O)nnn1Cc1cc(Cl)c(C(=O)c2ccc(Cl)cc2)c(Cl)c1 | 16.1 µM (inactive) | 17.8 µM (inactive) | 16.6 | 16.1 µM (inactive) | 16.9 µM (inactive) | 18.5 µM (inactive) | – | 14.4 µM (inactive) | 14.6 µM (inactive) | 16.9 µM (inactive) | 16.8 µM (inactive) | 22.3 µM (inactive) | 10.4 µM (inactive) | 19.2 µM (inactive) | 16.4 µM (inactive) | 22.8 µM (inactive) | 19.5 µM (inactive) | 17.6 µM (inactive) | 18 µM (inactive) | 21.6 µM (inactive)
O=C(Cc1ccc(Cl)c(Cl)c1)NCC1(N2CCCCC2)CCCCC1 | 39.3 µM (inactive) | 55.5 µM (inactive) | 38.7 | 36.6 µM (inactive) | 58.5 µM (inactive) | 46.3 µM (inactive) | 21.3 µM (inactive) | – | 57.7 µM (inactive) | 86.5 µM (inactive) | 40.1 µM (inactive) | 35.3 µM (inactive) | 21.6 µM (inactive) | 85.3 µM (inactive) | – | 28.8 µM (inactive) | 69.3 µM (inactive) | 20.2 µM (inactive) | 51.3 µM (inactive) | > 100 µM (inactive)
C1CSC2=C(S1)SC1=C(S2)SC(=C2SC3=C(SC4=C(SCCS4)S3)S2)S1 | > 100 µM (inactive) | > 100 µM (inactive) | > 100 | – | > 100 µM (inactive) | > 100 µM (inactive) | > 100 µM (inactive) | > 100 µM (inactive) | > 100 µM (inactive) | > 100 µM (inactive) | > 100 µM (inactive) | > 100 µM (inactive) | > 100 µM (inactive) | > 100 µM (inactive) | > 100 µM (inactive) | > 100 µM (inactive) | > 100 µM (inactive) | > 100 µM (inactive) | > 100 µM (inactive) | > 100 µM (inactive)
Cc1ccc(S(=O)(=O)CNC(=O)C(O)(O)C(F)(F)F)cc1 | > 100 µM (inactive) | > 100 µM (inactive) | > 100 | > 100 µM (inactive) | > 100 µM (inactive) | > 100 µM (inactive) | > 100 µM (inactive) | – | > 100 µM (inactive) | > 100 µM (inactive) | > 100 µM (inactive) | > 100 µM (inactive) | > 100 µM (inactive) | > 100 µM (inactive) | > 100 µM (inactive) | > 100 µM (inactive) | > 100 µM (inactive) | > 100 µM (inactive) | > 100 µM (inactive) | > 100 µM (inactive)
Cc1c/c(=N\c2ccc3c(c2)c(N)cc(C)[n+]3C)nc(N)n1C | > 100 µM (inactive) | > 100 µM (inactive) | > 100 | > 100 µM (inactive) | > 100 µM (inactive) | > 100 µM (inactive) | > 100 µM (inactive) | – | > 100 µM (inactive) | > 100 µM (inactive) | > 100 µM (inactive) | > 100 µM (inactive) | > 100 µM (inactive) | > 100 µM (inactive) | > 100 µM (inactive) | > 100 µM (inactive) | 88.3 µM (inactive) | > 100 µM (inactive) | > 100 µM (inactive) | > 100 µM (inactive)
COc1ccc(C(O)c2ccccn2)cc1 (configuration not stated) | > 100 µM (inactive) | > 100 µM (inactive) | > 100 | > 100 µM (inactive) | > 100 µM (inactive) | > 100 µM (inactive) | > 100 µM (inactive) | > 100 µM (inactive) | > 100 µM (inactive) | > 100 µM (inactive) | > 100 µM (inactive) | > 100 µM (inactive) | > 100 µM (inactive) | > 100 µM (inactive) | > 100 µM (inactive) | > 100 µM (inactive) | > 100 µM (inactive) | > 100 µM (inactive) | – | > 100 µM (inactive)
Cc1nc(C(N)=S)sc1C(=O)CC(=O)C(=O)Nc1nc2ccccc2[nH]1 | > 100 µM (inactive) | > 100 µM (inactive) | > 100 | > 100 µM (inactive) | > 100 µM (inactive) | > 100 µM (inactive) | > 100 µM (inactive) | 11.5 µM (inactive) | > 100 µM (inactive) | > 100 µM (inactive) | > 100 µM (inactive) | > 100 µM (inactive) | > 100 µM (inactive) | > 100 µM (inactive) | > 100 µM (inactive) | > 100 µM (inactive) | > 100 µM (inactive) | > 100 µM (inactive) | – | > 100 µM (inactive)
O=c1[nH]cnc2c1ncn2[C@@H]1C[C@H]1CO | > 100 µM (inactive) | > 100 µM (inactive) | > 100 | > 100 µM (inactive) | > 100 µM (inactive) | > 100 µM (inactive) | > 100 µM (inactive) | > 100 µM (inactive) | > 100 µM (inactive) | – | > 100 µM (inactive) | > 100 µM (inactive) | > 100 µM (inactive) | > 100 µM (inactive) | > 100 µM (inactive) | > 100 µM (inactive) | > 100 µM (inactive) | > 100 µM (inactive) | > 100 µM (inactive) | –
Nc1ccc2c(c1)Cc1ccccc1-2 | > 100 µM (inactive) | 48.2 µM (inactive) | 62.2 | 80.7 µM (inactive) | > 100 µM (inactive) | > 100 µM (inactive) | > 100 µM (inactive) | > 100 µM (inactive) | 47.6 µM (inactive) | 45.4 µM (inactive) | 64.9 µM (inactive) | – | 48.1 µM (inactive) | – | 66.2 µM (inactive) | > 100 µM (inactive) | > 100 µM (inactive) | 59.4 µM (inactive) | 23.6 µM (inactive) | > 100 µM (inactive)

Reference: ChEMBL document CHEMBL1201862, “PubChem BioAssay data set” (2004)
